For data set [1], the system named is ovulation. Kind of data set: Ovulation blockade by NES at given serum level. In kind it is in vivo. As to conditions: doses leading to serum levels of 250 pmol/L.
Data set [2] in a line: Absorption of the hormones applied onto the skin. In kind it is in vivo. On the procedure: These levels of these hormones applied onto the skin result in 10% absorption, and thus correspond to a daily dose of about 300 to 450 μg of the progestin and about 100 to 150 μg of the estrogen. Expressed in a different manner, it would also be possible to equate these levels of absorption of these hormones to corresponding plasma levels in the patient.

In data set [3] the test system is androgenic, estrogenic or glucocorticoid actions. The settings on record: at therapeutic levels; cited from earlier work.
For data set [4] the following is noted: oral administration; cited from earlier work.

Structures are written as SMILES.

`C=C1C[C@H]2[C@@H]3CCC4=CC(=O)CC[C@@H]4[C@H]3CC[C@]2(C)[C@@]1(OC(C)=O)C(C)=O` [NES, 16-methylene-17α-acetoxy-19-norpregn-4-ene-3,20-dione]: the “subjects in whom ovulation was blocked” value in data set [1] was “more than 95%”. Moreover, the absorption rate result in data set [2] (applied in a transdermal manner) is on record as “approximately 10%”. In addition, the “androgenic, estrogenic or glucocorticoid actions” value in data set [3] is on record as “does not carry androgenic, estrogenic or glucocorticoid actions”. Besides, the “activity when administered orally” value in data set [4] is on record as “not active”.
`C[C@]12CC[C@@H]3c4ccc(O)cc4CC[C@H]3[C@@H]1CC[C@@H]2O` [estradiol, 17β-estradiol]: in data set [2] (female, human, in vivo), the absorption rate result was “approximately 10%”.

Values taken from patent publication US9682087B2 (The Population Council, Inc., priority 2009, dated 2017).
